{
  "source": "patent US11071697B2",
  "about": "“Metal-carbon structure hybrid formulation for dental use in the treatment of dental hypersensitivity, demineralization and cavities” (UNIVERSIDAD DE CHILE, priority 2016, dated 2021)",
  "key": {"[1]": {"experiment": "Solubility of the salt as ammonia metal complex", "type": "physicochemical", "conditions": "impossible in aqueous solution", "text": "In FIG. 6 it is observed the absorption spectrum UV/Visible which confirms this structure.\nThe shift toward smaller wavelengths gives an account of the formation of ammonia metal complex which is observed in an increase of the solubility of the salt in this solution which allows to reach fluoride concentrations close to 30,000 ppm, which is impossible in aqueous solution."}, "[2]": {"test_system": "main bacterial species associated with dental caries", "experiment": "In vitro antibacterial capacity, inhibition halos", "type": "cell-based", "conditions": "composition: 25,000 ppm aqueous (Cu(NH3)6)F2 ammonia with 0.002 g/ml graphite oxide; FIG. 1", "text": "FIG. 1. […] The dark zone corresponds to the area where there is no bacterial growth. […] A) Chlorhexidine, B) Silver Diamine Fluorine, C) Silane Fluorine, D) Composition of the Invention. […] These tests have been performed on the main bacterial species associated with dental caries."}, "(TPH1) human cells": {"test_system": "(TPH1) human cells", "experiment": "Cell viability by mitochondrial activity assay (MTT)", "type": "cell-based", "conditions": "FIG. 2", "text": "FIG. 2. Cell viability assay using mitochondrial activity technique (MTT). THP1 cell type."}},
  "data": [
    {"smiles": "N.N.N.N.N.N.[Cu+2].[F-].[F-]", "note": "[Cu(NH3)6F2]", "values": [
      {"measurement": "fluoride concentrations reached in ammonia solution", "setting": "[1]", "value": "~30,000 ppm"}
    ]},
    {"smiles": "[H]/N=C(\\N/C(=N/[H])NCCCCCCNC(=N)NC(=N)Nc1ccc(Cl)cc1)Nc1ccc(Cl)cc1", "note": "[chlorhexidine]", "values": [
      {"measurement": "areas of inhibition halos", "setting": "[2]", "value": 659, "unit": "mm^2"},
      {"measurement": "toxicity (in words)", "setting": "(TPH1) human cells", "value": "a degree of toxicity"}
    ]}
  ]
}
